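A five-concentration, 48-hour dose response in 96-well plates underlies each endpoint, interpolated linearly between surrounding concentrations. GI50 = concentration required for 50% inhibition of growth.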 The source made the active and inactive calls. No stated cut-off is given here; in the data, active = GI50 up to about 1.1 µM and inactive = higher.

Test systems include CCRF-CEM; UACC-62; OVCAR-3; DU-145; TK-10; UACC-257; NCI-H226; U-251; HCT-15; MOLT-4; SK-MEL-5; HOP-62; SN12C; MCF7; SK-MEL-2.
Holding throughout (assay): NCI tumour cell line growth inhibition, 48 h

As to `C[Si](C)(OCCS(=O)(=O)O)C1S(=O)(=O)OCCOS1(=O)=O`, the GI50 is 58.1 µM (inactive) in the test on CCRF-CEM; 13.7 µM (inactive) in the test with UACC-62; > 100 µM (inactive) in the test with OVCAR-3; 80.9 µM (inactive) with DU-145; > 100 µM (inactive) with TK-10; > 100 µM (inactive) with UACC-257. Also, the GI50 is 64.9 µM (inactive) with NCI-H226; 21.8 µM (inactive) in the test on U-251; 67.5 µM with HCT-15; 30.3 µM (inactive) with MOLT-4; 49.5 µM (inactive) in the test with SK-MEL-5; 56.4 µM (inactive) in the test with HOP-62. Moreover, the GI50 is > 100 µM (inactive) in the test with SN12C and 36.6 µM (inactive) in the test with MCF7.
With `CC(=O)C1C(=O)C(=O)N(c2ccc(Cl)c(Cl)c2)C1=O` (stereo not drawn), the GI50 in the test on UACC-62, with OVCAR-3, with DU-145, in the test with SK-MEL-2, in the test with TK-10 and in the test on UACC-257 was > 100 µM (inactive) each time. The GI50 in the test on NCI-H226 was > 100 µM (inactive); in the test with U-251 it was > 100 µM (inactive); in the test on HCT-15 it was over 100 µM; with MOLT-4, > 100 µM (inactive); in the test with SK-MEL-5 it was > 100 µM (inactive); in the test with HOP-62, > 100 µM (inactive). Also, the GI50 in the test on SN12C and in the test on MCF7 was > 100 µM (inactive) throughout.
For the molecule `COc1ccc(C(=O)Oc2c(C#N)sc3c2c(=O)n(-c2ccccc2)c(=S)n3-c2ccccc2)cc1`, the GI50 is 15.1 µM (inactive) in the test on CCRF-CEM; 5.66 µM (inactive) in the test on UACC-62; 20.3 µM (inactive) in the test on OVCAR-3; 33 µM (inactive) in the test with DU-145; 28 µM (inactive) in the test on TK-10; 47.5 µM (inactive) in the test with UACC-257. Also, the GI50 with NCI-H226 is 24.2 µM (inactive); with U-251, 25.8 µM (inactive); with HCT-15 it was 16.7 µM; in the test with MOLT-4, 21 µM (inactive); in the test on SK-MEL-5 it was 21.6 µM (inactive); with HOP-62 it was 24.7 µM (inactive). Further, the results for the GI50 with SN12C and in the test with MCF7 were 23.5 µM (inactive) and 15 µM (inactive), respectively.
For the molecule `OCCN(CCO)c1ncnc2[nH]cnc12`, the GI50 is > 100 µM (inactive) in the test with CCRF-CEM; > 100 µM (inactive) in the test with UACC-62; > 100 µM (inactive) with OVCAR-3; > 100 µM (inactive) in the test with DU-145; 67.1 µM (inactive) with TK-10; > 100 µM (inactive) in the test on UACC-257. Also, the GI50 with NCI-H226 was > 100 µM (inactive); with U-251 it was > 100 µM (inactive); in the test with HCT-15, over 100 µM; in the test on MOLT-4, > 100 µM (inactive); in the test on SK-MEL-5, > 100 µM (inactive); with HOP-62, > 100 µM (inactive). In addition, the GI50 in the test on SN12C and in the test with MCF7 was > 100 µM (inactive) each time.
Consider `COC1C(O)C(C)OC(O[C@@H]2C[C@H]3CC[C@@H]4[C@H](CC[C@]5(C)[C@@H](C6=CC(=O)OC6)CC[C@]45O)[C@@]3(C)[C@H](O)C2)C1O` (stereo partly drawn), for which the GI50 in the test with CCRF-CEM is 0.0559 µM (active); in the test on UACC-62, 0.142 µM (active); in the test with OVCAR-3, < 0.0258 µM (active); in the test with DU-145 it was < 0.0302 µM (active); in the test with SK-MEL-2, 0.114 µM (active); in the test with TK-10 it was 0.0361 µM (active). For the same molecule, the GI50 is 0.1 µM (active) in the test with UACC-257; 0.151 µM (active) with NCI-H226; 0.0849 µM (active) with U-251; 0.0826 µM in the test with HCT-15; < 0.0162 µM (active) with MOLT-4; < 0.0258 µM (active) in the test on SK-MEL-5. The GI50 was 0.0333 µM (active) in the test on HOP-62 and < 0.01 µM (active) in the test with SN12C.
`Cc1ccc(/C=C2\Cc3cccc(C)c3C2=O)c(C(=O)O)c1`: the GI50 was 36.9 µM (inactive) with CCRF-CEM; 94.2 µM (inactive) in the test on OVCAR-3; > 100 µM (inactive) in the test on DU-145; > 100 µM (inactive) in the test with TK-10; > 100 µM (inactive) with UACC-257; > 100 µM (inactive) with NCI-H226. Also, the GI50 was 57.9 µM (inactive) with U-251; 39.2 µM in the test with HCT-15; 48.2 µM (inactive) with MOLT-4; 71.1 µM (inactive) in the test on SK-MEL-5; > 100 µM (inactive) in the test on HOP-62; > 100 µM (inactive) in the test on SN12C. The GI50 in the test with MCF7 is > 10 µM (inactive).
Take `CCN1CCCCCCCCCC(=N/O)/C(=N\O)C1`: the GI50 in the test on CCRF-CEM, in the test on OVCAR-3, in the test with DU-145, with TK-10, with UACC-257 and with NCI-H226 was > 100 µM (inactive) each time. The GI50 in the test on U-251 is > 100 µM (inactive); with HCT-15 it was over 100 µM; in the test with MOLT-4, > 100 µM (inactive); in the test with SK-MEL-5, > 100 µM (inactive); with HOP-62 it was > 100 µM (inactive); with SN12C, > 100 µM (inactive). For the same molecule, the GI50 with MCF7 is > 100 µM (inactive).
As to `C(=N\c1ccc(-c2cc(-c3ccccc3)nc3ccc4ccccc4c23)cc1)/c1ccccc1`, the GI50 with CCRF-CEM was 16 µM (inactive); in the test on UACC-62, 20.8 µM (inactive); in the test on OVCAR-3, 20.4 µM (inactive); in the test with DU-145 it was 20.7 µM (inactive); with TK-10, 22.3 µM (inactive); in the test with UACC-257, 23.5 µM (inactive). The GI50 with NCI-H226 is 22.3 µM (inactive); with U-251, 36.5 µM (inactive); in the test on HCT-15, 8.26 µM; with MOLT-4 it was 18.6 µM (inactive); in the test with SK-MEL-5, 17.4 µM (inactive); with HOP-62 it was 20.9 µM (inactive). Besides, the GI50 was 8.39 µM (inactive) in the test on SN12C and 9.25 µM (inactive) with MCF7.
Turning to `CC1C(c2ccc(N(C)C)cc2)c2cc3c(cc2OC1N1CCCC1)OCO3` (stereo not drawn), the GI50 is 36 µM (inactive) in the test with CCRF-CEM; 46.1 µM (inactive) in the test with UACC-62; 43.5 µM (inactive) in the test on OVCAR-3; 66.2 µM (inactive) with DU-145; 30.5 µM (inactive) with SK-MEL-2; 98.6 µM (inactive) in the test with TK-10. For the same molecule, the GI50 in the test with UACC-257 is > 92.5 µM (inactive); with U-251, 34 µM (inactive); in the test on HCT-15, 36.9 µM; in the test on MOLT-4 it was 48.8 µM (inactive); in the test with SK-MEL-5 it was 30.6 µM (inactive); in the test on HOP-62, 25.2 µM (inactive). Moreover, the GI50 in the test on SN12C is 63.1 µM (inactive); in the test with MCF7, 24.3 µM (inactive).
As for `C1=CN2C[n+]3ccc4ccccc4c3N=C2c2ccccc21`, the GI50 in the test on CCRF-CEM was 3.3 µM (inactive); with UACC-62 it was 1.93 µM (inactive); in the test with OVCAR-3, 0.652 µM (active); with DU-145, 6.62 µM (inactive); in the test with SK-MEL-2, 2.67 µM (inactive); with TK-10, 15.3 µM (inactive). In addition, the GI50 in the test with UACC-257 was 2.92 µM (inactive); in the test with U-251 it was 0.356 µM (active); in the test on HCT-15, 66.4 µM; with MOLT-4 it was 1.91 µM (inactive); in the test on SK-MEL-5, 0.308 µM (active); with HOP-62, 7.57 µM (inactive). For the same molecule, the GI50 in the test with SN12C is 2.47 µM (inactive); with MCF7, 0.929 µM (active).

For the origin of these results see ChEMBL document CHEMBL1201862, “PubChem BioAssay data set” (2004).
